Reference: US12528774B2, “Thiosemicarbazone compounds and uses thereof” (The Regents of the University of California, priority 2019, dated 2026)

Assays:
MIAPACA2 cells = assay: Viability assay (trypan blue) in MIAPACA2 cells with co-treatments; format: cell-based
Description: (§1) FIG. 1A: IC50 values in a panel of human and mouse prostate cancer (PC)(cell lines CF-2, LNCaP, 22Rv1, RM-1, MyC CaP); small cell lung carcinoma (SCLC)(cell lines NCI-H1963, NCI-H146, NCI-H526); pancreatic ductal adenocarcinoma (PDAC)(CFPAC1, SW1990, HS766T, PANC0203, PANC0813, ASPC1, HPAFII, PATU8902, PANC0327, PANC1, YAPC, L36PL, XWR200, HUPT4, A13A, SUIT2, DAN-G, BxPC3, HPAC, PSN1, SU8686, KP4662, MIAPACA2, PATU8988T); and leukemia (cell lines KG-1, TF-1, Jurkat, MOLT-4, p185-R, MV4-11) models treated with HCT13+Cu(II) (20 μM) for 72 h measured by CellTiterGlo. […] (mean±SD, n=2, one-way ANOVA corrected for multiple comparisons by Bonferroni adjustment, * P<0.05; **P<0.01; ***P<0.001).
FIGS. 2A-2I. FIG. 2A: representative immunoblots of MIAPACA2 PDAC cells treated as indicated for 24h. FIGS. 2B-2C: reactive oxygen species (ROS) measurement using CM-H2DCFDA staining after HCT13 (25 nM)+Cu(II) (20 μM) treatment for 24h; mean fluorescence intensity (MFI); mean±SD, n=2, Student t-test, ***P<0.001. FIG. 2D-2E: mitochondrial ROS detection using MitoSOX staining in MIAPACA2 PDAC cells treated with HCT-13 (25 nM)+Cu(II) (20 μM) for 24h; mean±SD, n=2, Student t-test, ***P<0.001. FIG. 2F: oxygen consumption rate (OCR) of MIAPACA2 PDAC cells treated with HCT-13 (25 nM)+Cu(II) (20 μM). FIG. 2G: OCR of isolated mitochondria measured with or without HCT-13 (25 nM)+Cu(II) (20 μM). FIG. 2H: viability of 143 BTK parental (wild type, WT) and po cells after 48 h of treatment with the indicated HCT-13 concentrations+Cu(II) (20 μM) treatment, assessed with trypan blue staining; mean±SD, n=2, Student t-test, ***P<0.001. FIG. 2I: cell viability by trypan blue staining in MIAPACA2 PDAC cells to interrogate the interaction of HCT-13 (25 nM)+Cu(II) (20 μM) with 2-DG (2 mM) for 48 h; mean±SD, n=2, Student t-test, ***P<0.001.
FIG. 5A: rescue of HCT-13 (25 nM)-induced cell death by Uridine (rU) (200 μM), Pyruvate (1 mM), or both following 48h of treatment. FIG. 5B: measurement of DHODH activity using recombinant DHODH assay following treatment with indicated perturbations for 2 min. DHODH inhibitor used: NITD-982-1 μM; HCT-13-100 nM, 1 μM, (100 nM data shown); Cu(II)—20 μM. (mean±SD, n=2, Student t-test, * P<0.05).
Viability/Apoptosis assay: Viable cells were measured by Trypan blue staining using vi-cell counter (Beckman Coulter, CA, USA). Apoptosis and cell death were assayed using Annexin V-FITC and PI according to manufacturer's instructions (FITC Annexin V Apoptosis Detection Kit, BD Sciences, #556570).
Viability/Apoptosis assay. Viable cells were measured by Trypan blue staining using a Vi-Cell counter (Beckman Coulter, CA, USA). […]

MIAPACA2 PDAC cells = assay: Intracellular copper measurement by ICP-MS; format: cell-based, human; settings: HCT13 25 nM, 24 h, with and without 20 μM Cu(II)
Description: as §1
The MIAPACA2 cell line, a well-characterized PDAC model that was highly sensitive to HCT13 treatment, was used to further investigate the mechanism of action of our lead compound. MIAPACA2 proliferation was measured in response to HCT13 in the presence and absence of 20 μM CuCl2 (Cu(II)), as well as in response to 20 μM Cu(II) alone (FIG. 1B). […] To probe whether HCT13 was acting as an ionophore, intracellular copper levels were measured using inductively coupled plasma mass spectrometry (ICP-MS). […]
Intracellular Cu(II) measurement. […] The concentration of Cu(II) was measured using Inductive Coupled Plasma Mass Spectrometry (ICP-MS) using standard procedure.

[1] = HCT-13 stock solution (solubilization); format: physicochemical; settings: aqueous with cosolvent or surfactant or cyclodextrin; aqueous 40% captisol with 1% DMSO, heating 50° C., sonication 15 minutes; read-out: concentration solubilized
Procedure: HCT-13 stock solution. HCT-13 was solubilized up to a concentration of 20 mg/mL in an aqueous solution of 40% captisol with 1% DMSO with the aid of heating at 50° C. and sonication for 15 minutes.

CN(C)C(=S)N/N=C/c1nccc2cc(F)ccc12 (mixture of isomers) [HCT13, (E)-2-((6-Fluoroisoquinolin-1-yl)methylene)-N,N-dimethylhydrazine-1-carbothioamide and (Z)-2-((6-Fluoroisoquinolin-1-yl)methylene)-N,N-dimethylhydrazine-1-carbothioamide]
cytotoxicity in presence of bathocuproine disulfonate (BCPS) (MIAPACA2 cells; HCT13 25 nM + Cu(II) 20 μM, 24 h, BCPS 300 μM): abrogated
activity with co-administration of 2-deoxyglucose (2-DG) (MIAPACA2 cells; HCT-13 25 nM + Cu(II) 20 μM, 2-DG 2 mM, 48 h): significantly potentiated
cytotoxicity with pyruvate supplementation (MIAPACA2 cells; HCT-13 25 nM, pyruvate 1 mM, 48 h): not by pyruvate
cytotoxicity with uridine (rU) supplementation (MIAPACA2 cells; HCT-13 25 nM, uridine 200 μM, 48 h): partially abolished
intracellular copper levels (MIAPACA2 PDAC cells): increased
solubility at 15 min [1]: ≤ 20 mg/mL
